The results in this text go back to ChEMBL document CHEMBL1201862, “PubChem BioAssay data set” (2004).

Some test systems named below: A498; CCRF-CEM; HCT-116; HOP-62; HT-29; IGROV-1; LOX IMVI; M14; OVCAR-3; OVCAR-5; RXF 393; SF-295; SK-OV-3; SN12C; SNB-75; SR; SW-620; U-251.
Holding throughout (experiment): NCI tumour cell line growth inhibition, 48 h

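96-well plates; 48 h exposure; 5 concentrations. Endpoints by linear interpolation between flanking doses. Not reached: highest tested concentration assigned. GI50: concentration for 50% inhibition of growth.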 Active and inactive are the calls of the source. No stated cut-off is given here; in the data, active = GI50 up to about 1.1 µM and inactive = higher. Some results are limits rather than exact numbers.

On to `O=Cc1cn(S(=O)(=O)c2ccccc2)c2ccccc12`, for which the GI50 is > 100 µM (inactive) with A498; 23.3 µM (inactive) with CCRF-CEM; 20 µM (inactive) with HCT-116; > 100 µM (inactive) in the assay on HOP-62; 55.5 µM (inactive) with HT-29; > 100 µM (inactive) in the assay with IGROV-1. Moreover, the GI50 in the assay with LOX IMVI was 20.6 µM (inactive); in the assay on M14, 31.3 µM (inactive); with OVCAR-3, 41 µM (inactive); in the assay with OVCAR-5 it was > 100 µM (inactive); in the assay on RXF 393 it was 95.5 µM (inactive); with SF-295 it was 48.3 µM (inactive). Further, the GI50 with SK-OV-3 was > 100 µM (inactive); in the assay with SN12C it was 42.4 µM (inactive); in the assay with SNB-75, 26.2 µM (inactive); with SR it was 20.1 µM (inactive); in the assay with SW-620, 35.5 µM (inactive); in the assay on U-251 it was 27.6 µM (inactive).

As to `Cc1ccc(C)c(NC(=O)C(=O)C(C2C(C)CC(=O)C2CC(=O)O)[N+](=O)[O-])c1` (centres undefined), the GI50 in the assay on A498, in the assay with CCRF-CEM, with HCT-116, in the assay on HOP-62, in the assay on HT-29 and in the assay with IGROV-1 was > 100 µM (inactive) throughout. The GI50 in the assay on LOX IMVI, in the assay with M14, with OVCAR-3, with OVCAR-5, in the assay on RXF 393 and in the assay on SF-295 was > 100 µM (inactive) each time. The GI50 in the assay with SK-OV-3, in the assay with SN12C, with SNB-75, in the assay on SR, in the assay with SW-620 and with U-251 was > 100 µM (inactive) throughout.

`O=C(c1ccccc1)c1nc2c(Cl)ccc(Cl)c2cc1C(Br)Br`: the GI50 with CCRF-CEM was 0.191 µM (active); in the assay on HCT-116, 0.375 µM (active); in the assay on HOP-62, 1.67 µM (inactive); in the assay with IGROV-1 it was 2.75 µM (inactive); with LOX IMVI, 1.65 µM (inactive); in the assay on M14 it was 1.4 µM (inactive). For the same compound, the GI50 in the assay on OVCAR-3 is 1.55 µM (inactive); with OVCAR-5, 1.08 µM (active); in the assay with RXF 393, 2.34 µM (inactive); with SF-295 it was 1.2 µM (inactive); with SN12C it was 1.17 µM (inactive); in the assay with SNB-75, 0.668 µM (active). The results for the GI50 with SR, in the assay with SW-620 and with U-251 were 1.59 µM (inactive), 0.308 µM (active) and 1.11 µM (active), respectively.

For `NC(=O)CCC(NC(=O)Cc1ccccc1)C(=O)O.NC(CCC(=O)NC(=O)Cc1ccccc1)C(=O)O` (centres undefined), the GI50 in the assay on A498, with CCRF-CEM, in the assay on HCT-116, in the assay on HOP-62, in the assay with HT-29 and in the assay on IGROV-1 was > 8130 µM (inactive) throughout. Further, the GI50 in the assay on M14, in the assay with OVCAR-3, in the assay with OVCAR-5, with RXF 393, in the assay with SF-295 and in the assay on SK-OV-3 was > 8130 µM (inactive) in each case. For the same compound, the GI50 was > 8130 µM (inactive) in the assay with SN12C; 1080 µM (inactive) with SNB-75; > 8130 µM (inactive) in the assay on SR; > 8130 µM (inactive) with SW-620; > 8130 µM (inactive) with U-251.

On to `COc1ccc2c3c([nH]c2c1[N+](=O)[O-])C(C)N(Cc1ccccc1)CC3` (centres undefined), for which the GI50 in the assay with A498 is 2.4 µM (inactive); in the assay with CCRF-CEM, 2.51 µM (inactive); in the assay with HCT-116, 3.08 µM (inactive); in the assay on HOP-62, 2.07 µM (inactive); in the assay with HT-29 it was 2.92 µM (inactive); in the assay on IGROV-1 it was 3.57 µM (inactive). For the same compound, the GI50 in the assay on LOX IMVI was 3.91 µM (inactive); in the assay on M14, 3.76 µM (inactive); in the assay on OVCAR-3, 3.52 µM (inactive); in the assay on OVCAR-5, 43.3 µM (inactive); with RXF 393, 3.21 µM (inactive); with SF-295, 2.02 µM (inactive). The GI50 in the assay with SN12C is 5.81 µM (inactive); in the assay on SR it was 4.49 µM (inactive); with SW-620, 2.11 µM (inactive); in the assay on U-251, 2.67 µM (inactive).

Consider `O=C(/C=C/c1c(O)ccc2ccccc12)c1ccc([N+](=O)[O-])cc1`, for which the GI50 with A498 is > 100 µM (inactive); with CCRF-CEM, 17.9 µM (inactive); in the assay on HCT-116, 19.3 µM (inactive); with HOP-62, > 100 µM (inactive); in the assay on HT-29 it was 54.1 µM (inactive); in the assay on IGROV-1 it was > 60.8 µM (inactive). Further, the GI50 in the assay on LOX IMVI was 16.7 µM (inactive); in the assay with M14 it was 19.8 µM (inactive); in the assay on OVCAR-3 it was 17.3 µM (inactive); with OVCAR-5, > 100 µM (inactive); with RXF 393, 23.1 µM (inactive); in the assay with SF-295, > 66.2 µM (inactive). Further, the GI50 was > 100 µM (inactive) in the assay with SK-OV-3; 20 µM (inactive) in the assay with SN12C; > 83 µM (inactive) with SNB-75; 32.7 µM (inactive) with SR; 25.2 µM (inactive) in the assay with SW-620; 46.5 µM (inactive) in the assay with U-251.

`COC1OC(CO)C(O)C(O)C1Br` (centres undefined): the GI50 in the assay with A498, with CCRF-CEM, in the assay with HCT-116, in the assay with HOP-62, in the assay on HT-29 and with IGROV-1 was > 100 µM (inactive) each time. The GI50 in the assay with LOX IMVI, with M14, in the assay with OVCAR-3, in the assay on OVCAR-5, in the assay on RXF 393 and with SF-295 was > 100 µM (inactive) in each case. Besides, the GI50 with SN12C, with SR, in the assay with SW-620 and with U-251 was > 100 µM (inactive) in each case.

With `COc1ccc(C2=NC(C)(C)CO2)cc1`, the GI50 in the assay with A498, in the assay with CCRF-CEM, in the assay with HCT-116, in the assay on HOP-62, with HT-29 and in the assay with IGROV-1 was > 100 µM (inactive) throughout. For the same compound, the GI50 with LOX IMVI was 82.6 µM (inactive); in the assay on OVCAR-3 it was > 100 µM (inactive); in the assay with OVCAR-5 it was > 100 µM (inactive); with RXF 393, > 100 µM (inactive); in the assay with SF-295, > 100 µM (inactive); with SN12C it was > 100 µM (inactive). The GI50 with SNB-75, in the assay with SR, with SW-620 and with U-251 was > 100 µM (inactive) throughout.

In the case of `O=C1COc2cc(NC(=S)Nc3ccccc3)ccc2N1`, the GI50 in the assay on CCRF-CEM, in the assay with HCT-116, in the assay on HOP-62, in the assay on HT-29, in the assay with IGROV-1 and with LOX IMVI was > 100 µM (inactive) in each case. For the same compound, the GI50 with M14, in the assay on OVCAR-3, with OVCAR-5, with RXF 393, with SF-295 and in the assay on SK-OV-3 was > 100 µM (inactive) in each case. Moreover, the GI50 with SN12C, in the assay with SNB-75, with SR, with SW-620 and in the assay with U-251 was > 100 µM (inactive) in each case.

`COc1ccc(/C(Cl)=C(\C=N/O)c2ccc(OC)c(OC)c2)cc1OC`: the GI50 in the assay with A498 was > 100 µM (inactive); with CCRF-CEM, > 100 µM (inactive); with HCT-116 it was > 100 µM (inactive); in the assay with HOP-62, 49.8 µM (inactive); with HT-29, > 100 µM (inactive); in the assay with IGROV-1, > 100 µM (inactive). Also, the GI50 in the assay with LOX IMVI is > 100 µM (inactive); in the assay on M14 it was 51.3 µM (inactive); in the assay on OVCAR-3, > 100 µM (inactive); in the assay with OVCAR-5, > 100 µM (inactive); in the assay on RXF 393, > 100 µM (inactive); with SF-295, 81.7 µM (inactive). Moreover, the GI50 in the assay on SK-OV-3, in the assay on SN12C, with SNB-75, in the assay with SR, in the assay on SW-620 and with U-251 was > 100 µM (inactive) throughout.

For `CC(=O)n1ccc2c(Cl)ncnc21`, the GI50 with A498, with CCRF-CEM, in the assay with HCT-116, in the assay with HOP-62, with HT-29 and in the assay on IGROV-1 was > 100 µM (inactive) throughout. The GI50 in the assay with LOX IMVI is > 100 µM (inactive); with M14, > 100 µM (inactive); in the assay on OVCAR-3 it was > 100 µM (inactive); in the assay on RXF 393 it was 0.038 µM (active); in the assay with SF-295, > 100 µM (inactive); with SK-OV-3, > 100 µM (inactive). Moreover, the GI50 in the assay with SN12C is > 100 µM (inactive); in the assay with SNB-75 it was < 0.01 µM (active); with SR, > 100 µM (inactive); in the assay with SW-620, > 100 µM (inactive); in the assay on U-251, > 100 µM (inactive).

On to `NC1=C(Br)C(=O)c2ncccc2C1=O`, for which the GI50 was 3.72 µM (inactive) with A498; 1.4 µM (inactive) in the assay with CCRF-CEM; 0.22 µM (active) in the assay on HCT-116; 0.632 µM (active) in the assay with HOP-62; 1.69 µM (inactive) in the assay with HT-29; 1.11 µM (active) with IGROV-1. Moreover, the GI50 in the assay with LOX IMVI is 0.137 µM (active); in the assay on M14 it was 0.673 µM (active); in the assay on OVCAR-3, 1.09 µM (active); in the assay with OVCAR-5, 1.95 µM (inactive); with RXF 393 it was 0.258 µM (active); in the assay on SF-295, 0.367 µM (active). The GI50 in the assay on SK-OV-3 was 1.81 µM (inactive); in the assay on SN12C, 0.815 µM (active); in the assay with SNB-75, 0.183 µM (active); in the assay with SR it was 0.173 µM (active); in the assay with SW-620 it was 0.466 µM (active); in the assay on U-251, 0.177 µM (active).
